The subject of data set [1] is MDA-MB-231. In words: Breast cancer cell viability assay (WST-8). In kind it is cell-based, human. The conditions noted are these: dose dependently. Here is the method:
(§1) An experiment was performed to confirm the growth inhibitory effect of the compounds of Examples 1 and 2, the active ingredients of the pharmaceutical composition of the present invention, on breast cancer cell lines through cell viability assay.
(§2) Specifically, the cell viability assay was performed as follows. BT20, a human-derived breast cancer cell line, and MDA-MB-231, a TNBC cell line, were each seeded in 96-well plates at the density of 5×10^3 cells/well and cultured for 24 hours. […] At the end of the culture, 100 μl of WST-8 solution was added to each well of the plate, and the absorbance was measured with a microplate reader using a 450 nm optical filter to measure the formazan produced by the reducing factors in living cells.

For another data set, the system named is BT20. In words: Breast cancer cell viability assay (WST-8). Conditions: dose dependently. Type of data set: cell-based, human. Here is the method: as §1, §2
Another data set relates to MDA-MB-453. Nature of the data set: Breast cancer cell viability assay (WST-8). In kind it is cell-based. The conditions noted are these: MDA-MB-453, 24 hours, dose dependently. The procedure: Specifically, the cell viability assay was performed as follows. BT20, a human-derived breast cancer cell line, and MDA-MB-231, a TNBC cell line, were each seeded in 96-well plates at the density of 5×10^3 cells/well and cultured for 24 hours. Then, I-bet 762 and the compounds were treated thereto at different concentrations and cultured for 48 hours. At the end of the culture, 100 μl of WST-8 solution was added to each well of the plate, and the absorbance was measured with a microplate reader using a 450 nm optical filter to measure the formazan produced by the reducing factors in living cells.
FIGS. 10A and 10B show the cell viability of MDA-MB-231, MDA-MB-453, and BT-20 after 24 hours of treatment with the compound of Example 3.
A general note: Tetrazolium assays rely on reduction of a dye to a coloured formazan, in cell work by metabolically active cells.

The next data set relates to A549. In words: Cell viability assay (WST-8), cytotoxicity on cancer cell lines. In kind it is cell-based, human. Here is the method: (§3) The cytotoxicity of the compound of Example 1 against various cancer cell lines was evaluated. Etoposide, sold as an anticancer agent, was used as a control group drug. Specifically, the cell viability assay was performed as follows. A549, SK-OV-3, SK-MEL-2, and HCT15 cell lines were seeded in 96 well plates at the density of 5×10^3 cells per well and cultured for 24 hours. Then, the plates were treated with the compound of Example 1 or etoposide at different concentrations, followed by culture for 24 and 48 hours. At the end of the culture, 100 μl of WST-8 solution was added to each well of the plate, and the absorbance was measured with a microplate reader using a 450 nm optical filter to measure the formazan produced by the reducing factors in living cells. • A549: human non-small cell lung cancer cells • SK-OV-3: human ovarian cancer cells • SK-MEL-2: human melanoma cells • HCT15: human colorectal cancer adenocarcinoma cells

Another data set deals with HCT15. The description is as above. In kind it is cell-based, human. Conditions: HCT15, 24 and 48 hours, dose dependently. Here is the method: as §3
The subject of a further data set is SK-OV-3. Described as above. Conditions: SK-OV-3, 24 and 48 hours, dose dependently. In kind it is cell-based, human. The procedure:
as §3

In another data set the test system is SK-MEL-2. Described as above. Type of data set: cell-based, human. Conditions: SK-MEL-2, 24 and 48 hours, dose dependently. The procedure: as §3
A further data set deals with Huh-7. Nature of the data set: Combination with sorafenib, cell viability / caspase-3 activity. Type of data set: cell-based, human. Here is the method:
(§4) Human liver cancer cell lines (SK Hep1 and Huh-7) were treated with control (no treatment), 5 μM of the compound of Example 1, 0.1 μM of sorafenib, and 5 μM of the compound of Example 1/0.1 μM of sorafenib, and the cell viability of SK Hep1 and Huh-7 was confirmed.

A further data set relates to SK Hep1. Described as above. Type of data set: cell-based, human. Here is the method:
as §4

The subject of data set [2] is MDA-MB-231. Nature of the data set: Breast cancer growth inhibition in xenograft nude mice. The conditions noted are these: 25 mpk intravenously. Type of data set: in vivo. Here is the method:
An experiment was performed to confirm the tumor inhibition of the compound of Example 1, the active ingredient of the pharmaceutical composition of the present invention, on a xenograft tumor sample of breast cancer cells (MBA-MB-231), a human-derived TNBC cell line.
Specifically, to confirm the effect of the compound of Example 1, which is the active ingredient of the pharmaceutical composition provided by the present invention, on the inhibition of breast cancer cell growth, an experiment was performed using 80 female 5-week-old xenograft Balb/c nude mice. The experimental xenograft Balb/c nude mice lacks T cells, the immune cells, were selected as an animal model suitable for transplanting human cancer cells. At the time of administration, animals within ±20% of the total average body weight were selected, and tumor growth was checked twice a week on the surface, and the size of the tumor was measured with a vernier caliper for 3 weeks. In addition, the compound of Example 1 was administered intravenously at a concentration of 25 mpk, and 30% PEG was used as a solvent.

The subject of the next data set is OVCAR-3. In words: Combination with cisplatin, cell viability. Type of data set: cell-based, human. Here is the method: (§5) Human ovarian cancer cell lines (SKOV-3 and OVCAR-3) were treated with control (no treatment), 0.1 μM of the compound of Example 1, 10 μM of cisplatin, […], and the cell viability of SKOV-3 and OVCAR-3 was confirmed.
The test system of another data set is SKOV-3. Nature of the data set: Combination with cisplatin, cell viability. Type of data set: cell-based, human. Here is the method: as §5
Data set [3] deals with MDA-MB-231. In words: Number of mitotic figures / apoptotic bodies in xenograft tumor tissue (H&E). Conditions: for Mitotic index: sum of five areas at x400. In kind it is in vivo, BALB/c-nude mice. Here is the method: An experiment was performed to evaluate the tumor necrosis effect of the compound of Example 1 by measuring the number of apoptotic bodies in tumors and H&E staining of tumor tissues in BALB/c-nude mice injected with cancer cell lines. […] After calculating the sum of the measurements and expressing them as individual values, statistical comparative analysis was performed using GraphPad Prism 5. As a result of observing the apoptotic body, it was observed that the cells were shrunk and divided (blebs) and that empty space (hollow) surrounded the periphery. […] Since the frequency of mitotic figures in tumor tissue is related to the dividing ability of tumor cells, it can reflect the degree of malignancy of the tumor.

The structures appear in SMILES notation.

As to `O=C(Nc1n[nH]c2ncc(-c3cnn(C4CCNCC4)c3)cc12)c1ccc(F)cc1` [Example 3, 4-fluoro-N-(5-(1-(piperidin-4-yl)-1H-pyrazol-4-yl)-1H-pyrazolo[3,4-b]pyridin-3-yl)benzamide], the cell viability entry was “suppressed” with MDA-MB-231 [1] (MDA-MB-231, 24 hours); “suppressed” in the data set with BT20 (BT-20, 24 hours); “suppressed” in the data set on MDA-MB-453.
With `c1nc(Nc2ccc(N3CCCC3)cc2)c2cc[nH]c2n1` [Example 1, N-(4-(pyrrolidin-1-yl)phenyl)-7H-pyrrolo[2,3-d]pyrimidin-4-amine], the “toxicity to cancer cell line (cell viability)” value is “excellent toxicity” with A549 (A549, 24 and 48 hours, dose dependently); “excellent toxicity” in the data set with HCT15; “excellent toxicity” in the data set with SK-OV-3; “excellent toxicity” with SK-MEL-2. Further, the “toxicity compared with etoposide” value in the data set with A549 (various cancer cell lines (A549, SK-OV-3, SK-MEL-2, HCT15)) is listed as “equally or more effective than etoposide”. In addition, the cell viability result with Huh-7 (Huh-7, 5 μM Example 1 in combination with 0.1 μM sorafenib) is “further inhibited (synergistic effect)”; with Huh-7 (Huh-7, 5 μM alone) it was “suppressed”; in the data set on SK Hep1 (SK Hep1, 5 μM Example 1 in combination with 0.1 μM sorafenib), “further inhibited (synergistic effect)”; in the data set with SK Hep1 (SK Hep1, 5 μM alone) it was “suppressed”; in the data set on OVCAR-3 (OVCAR-3, 0.1 μM Example 1 in combination with 10 μM cisplatin) it was “further inhibited (synergistic effect)”; in the data set on OVCAR-3 (OVCAR-3, 0.1 μM alone), “suppressed”. Also, the cell viability entry in the data set on SKOV-3 (SKOV-3, 0.1 μM Example 1 in combination with 10 μM cisplatin) is on record as “further inhibited (synergistic effect)”; with SKOV-3 (SKOV-3, 0.1 μM alone) it was “suppressed”. The “biological toxicity (change in body weight)” value in the data set on MDA-MB-231 [2] (3 weeks) is given as “no biological toxicity”. Also, the cachexia phenomenon result with MDA-MB-231 [2] (3 weeks) was “not observed”. In addition, in the data set on MDA-MB-231 [2] (vs CTL), the “tumor growth (change in tumor size/volume)” value is given as “significantly suppressed”. Also, the “tumor growth (change in tumor weight)” value in the data set on MDA-MB-231 [2] (vs CTL) was “significantly suppressed”. Also, the “number of apoptotic bodies” value in the data set with MDA-MB-231 [3] (T1 and T2 groups compared to NC, dose dependently) was “higher”. In addition, the results for the Mitotic index with MDA-MB-231 [3] (T1 group (2 times/week)) and with MDA-MB-231 [3] (T2 group (3 times/week)) were 25.5 ± 10.2 and 20.8 ± 7.4, respectively.
Take `CNC(=O)c1cc(Oc2ccc(NC(=O)Nc3ccc(Cl)c(C(F)(F)F)c3)cc2)ccn1` [sorafenib, reference compound]: the cell viability entry is reported as “suppressed” in the data set on Huh-7 (Huh-7, 0.1 μM sorafenib alone) and “suppressed” with SK Hep1 (SK Hep1, 0.1 μM sorafenib alone).
As to `N.N.[Cl][Pt][Cl]` [cisplatin, reference compound], the cell viability result in the data set on OVCAR-3 (OVCAR-3, 1 μM of cisplatin alone) is recorded as “suppressed”; with SKOV-3 (SKOV-3, 1 μM of cisplatin alone) it was “suppressed”.
Regarding `CN1CCN(c2ccc(C(=O)Nc3n[nH]c4ncc(Br)cc34)cc2)CC1` [Example 2, N-(5-bromo-1H-pyrazolo[3,4-b]pyridin-3-yl)-4-(4-methylpiperazin-1-yl)benzamide], the cell viability entry in the data set on MDA-MB-231 [1] (MDA-MB-231, 24 and 48 hours) was “inhibited the cell viability”; in the data set with BT20 (BT20, 24 and 48 hours), “inhibited the cell viability”.
